Columns and labels:
Type in all cases: in vivo
[1] = system: barnyardgrass (Echinochloa crus-galli); test: Test A postemergence, barnyardgrass; settings: 0 to 100 scale (0 no effect, 100 complete control), approx. 10 d
Excerpt: (§1) Seeds of plant species selected from barnyardgrass (Echinochloa crus-galli), kochia (Kochia scoparia), ragweed (common ragweed, Ambrosia elatior), ryegrass, Italian (Italian ryegrass, Lolium multiflorum), foxtail, green (green foxtail, Setaria viridis), and pigweed (Amaranthus retroflexus) were planted into a blend of loam soil and sand and treated preemergence with a directed soil spray using test chemicals formulated in a non-phytotoxic solvent mixture which included a surfactant. At the same time, plants selected from these weed species and also wheat (Triticum aestivum), corn (Zea mays), blackgrass (Alopecurus myosuroides), and galium (catchweed bedstraw, Galium aparine) were planted in pots containing the same blend of loam soil and sand and treated with postemergence applications of test chemicals formulated in the same manner. Plants ranged in height from 2 to 10 cm and were in the one- to two-leaf stage for the postemergence treatment. Treated plants and untreated controls were maintained in a greenhouse for approximately 10 d, after which time all treated plants were compared to untreated controls and visually evaluated for injury. Plant response ratings, summarized in Table A, are based on a 0 to 100 scale where 0 is no effect and 100 is complete control. A dash (-) response means no test result.

kochia (Kochia scoparia) [2] = test: Test A postemergence, kochia; settings: 0 to 100 scale (0 no effect, 100 complete control), approx. 10 d
Excerpt: as §1

[3] = system: ragweed (common ragweed, Ambrosia elatior); test: Test A postemergence, ragweed; settings: 0 to 100 scale (0 no effect, 100 complete control), approx. 10 d
Excerpt: as §1

[4] = system: ryegrass, Italian (Italian ryegrass, Lolium multiflorum); test: Test A postemergence, Italian ryegrass; settings: 0 to 100 scale (0 no effect, 100 complete control), approx. 10 d
Excerpt: as §1

[5] = system: foxtail, green (green foxtail, Setaria viridis); test: Test A postemergence, green foxtail; settings: 0 to 100 scale (0 no effect, 100 complete control), approx. 10 d
Excerpt: as §1

[6] = system: pigweed (Amaranthus retroflexus); test: Test A postemergence, pigweed; settings: 0 to 100 scale (0 no effect, 100 complete control), approx. 10 d
Excerpt: as §1

[7] = system: wheat (Triticum aestivum); test: Test A postemergence, wheat; settings: 0 to 100 scale (0 no effect, 100 complete control), approx. 10 d
Excerpt: as §1

corn (Zea mays) = test: Test A postemergence, corn; settings: 0 to 100 scale (0 no effect, 100 complete control), approx. 10 d
Excerpt: as §1

[8] = system: blackgrass (Alopecurus myosuroides); test: Test A postemergence, blackgrass; settings: 0 to 100 scale (0 no effect, 100 complete control), approx. 10 d
Excerpt: as §1

[9] = system: galium (catchweed bedstraw, Galium aparine); test: Test A postemergence, galium; settings: 0 to 100 scale (0 no effect, 100 complete control), approx. 10 d
Excerpt: as §1

[10] = system: barnyardgrass (Echinochloa crus-galli); test: Test A preemergence, barnyardgrass; settings: 0 to 100 scale (0 no effect, 100 complete control), approx. 10 d
Excerpt: as §1

kochia (Kochia scoparia) [11] = test: Test A preemergence, kochia; settings: 0 to 100 scale (0 no effect, 100 complete control), approx. 10 d
Excerpt: as §1

[12] = system: ragweed (common ragweed, Ambrosia elatior); test: Test A preemergence, ragweed; settings: 0 to 100 scale (0 no effect, 100 complete control), approx. 10 d
Excerpt: as §1

[13] = system: ryegrass, Italian (Italian ryegrass, Lolium multiflorum); test: Test A preemergence, Italian ryegrass; settings: 0 to 100 scale (0 no effect, 100 complete control), approx. 10 d
Excerpt: as §1

[14] = system: foxtail, green (green foxtail, Setaria viridis); test: Test A preemergence, green foxtail; settings: 0 to 100 scale (0 no effect, 100 complete control), approx. 10 d
Excerpt: as §1

[15] = system: pigweed (Amaranthus retroflexus); test: Test A preemergence, pigweed; settings: 0 to 100 scale (0 no effect, 100 complete control), approx. 10 d
Excerpt: as §1

[16] = system: barnyardgrass (Echinochloa crus-galli); test: Test B flooded paddy test, barnyardgrass; settings: Flood, 250 g ai/ha; applied to paddy water at 2-leaf stage; visual rating after 13 to 15 d; scale 0 to 100, 0 is no effect, 100 is complete control
Procedure: (§2) Plant species in the flooded paddy test selected from rice (Oryza sativa), sedge, umbrella (small-flower umbrella sedge, Cyperus difformis), ducksalad (Heteranthera limosa), and barnyardgrass (Echinochloa crus-galli) were grown to the 2-leaf stage for testing. At time of treatment, test pots were flooded to 3 cm above the soil surface, treated by application of test compounds directly to the paddy water, and then maintained at that water depth for the duration of the test. Treated plants and controls were maintained in a greenhouse for 13 to 15 d, after which time all species were compared to controls and visually evaluated. Plant response ratings, summarized in Table B, are based on a scale of 0 to 100 where 0 is no effect and 100 is complete control. A dash (-) response means no test result.

[17] = system: ducksalad (Heteranthera limosa); test: Test B flooded paddy test, ducksalad; settings: Flood, 250 g ai/ha; applied to paddy water at 2-leaf stage; visual rating after 13 to 15 d; scale 0 to 100, 0 is no effect, 100 is complete control
Procedure: as §2

rice (Oryza sativa) = test: Test B flooded paddy test, rice; settings: Flood, 250 g ai/ha; applied to paddy water at 2-leaf stage; visual rating after 13 to 15 d; scale 0 to 100, 0 is no effect, 100 is complete control
Procedure: as §2

[18] = system: sedge, umbrella (small-flower umbrella sedge, Cyperus difformis); test: Test B flooded paddy test, umbrella sedge; settings: Flood, 250 g ai/ha; applied to paddy water at 2-leaf stage; visual rating after 13 to 15 d; scale 0 to 100, 0 is no effect, 100 is complete control
Procedure: as §2

CC(=O)OC[C@@]1(C(=O)Nc2cccc(F)c2F)C(=O)N(C)C[C@@H]1c1ccc(C(F)(F)F)cc1 [Compound 2, (3S,4R)-3-[(acetyloxy)methyl]-N-(2,3-difluorophenyl)-1-methyl-2-oxo-4-[4-(trifluoromethyl)phenyl]-3-pyrrolidincarboxamide]
Plant response rating, Barnyardgrass ([1]; 31 g ai/ha): 0
Plant response rating, Barnyardgrass ([1]; 125 g ai/ha): 50
Plant response rating, Kochia (kochia (Kochia scoparia) [2]; 31 g ai/ha): 0
Plant response rating, Kochia (kochia (Kochia scoparia) [2]; 125 g ai/ha): 40
Plant response rating, Ragweed ([3]; 31 g ai/ha): 0
Plant response rating, Ragweed ([3]; 125 g ai/ha): 40
Plant response rating, Ryegrass, Italian ([4]; 31 g ai/ha): 20
Plant response rating, Ryegrass, Italian ([4]; 125 g ai/ha): 50
Plant response rating, Foxtail, Green ([5]; 31 g ai/ha): 20
Plant response rating, Foxtail, Green ([5]; 125 g ai/ha): 70
Plant response rating, Pigweed ([6]; 31 g ai/ha): 20
Plant response rating, Pigweed ([6]; 125 g ai/ha): 40
Plant response rating, Wheat ([7]; 31 g ai/ha): 0
Plant response rating, Wheat ([7]; 125 g ai/ha): 20
Plant response rating, Corn (corn (Zea mays); 31 g ai/ha): 0
Plant response rating, Corn (corn (Zea mays); 125 g ai/ha): 40
Plant response rating, Blackgrass ([8]; 31 g ai/ha): 0
Plant response rating, Blackgrass ([8]; 125 g ai/ha): 10
Plant response rating, Galium ([9]; 31 g ai/ha): 0
Plant response rating, Galium ([9]; 125 g ai/ha): 40
Plant response rating, Barnyardgrass ([10]; 31 g ai/ha): 50
Plant response rating, Barnyardgrass ([10]; 125 g ai/ha): 80
Plant response rating, Kochia (kochia (Kochia scoparia) [11]; 31 g ai/ha): 20
Plant response rating, Kochia (kochia (Kochia scoparia) [11]; 125 g ai/ha): 50
Plant response rating, Ragweed ([12]; 31 g ai/ha): 0
Plant response rating, Ragweed ([12]; 125 g ai/ha): 30
Plant response rating, Ryegrass, Italian ([13]; 31 g ai/ha): 0
Plant response rating, Ryegrass, Italian ([13]; 125 g ai/ha): 10
Plant response rating, Foxtail, Green ([14]; 31 g ai/ha): 60
Plant response rating, Foxtail, Green ([14]; 125 g ai/ha): 90
Plant response rating, Pigweed ([15]; 31 g ai/ha): 20
Plant response rating, Pigweed ([15]; 125 g ai/ha): 80
Plant response rating, Barnyardgrass [16]: 65
Plant response rating, Ducksalad [17]: 95
Plant response rating, Rice (rice (Oryza sativa)): 30
Plant response rating, Sedge, Umbrella [18]: 0

(3S,4R)-3-acetyl-N-(2,3-difluorophenyl)-1-methyl-2-oxo-4-[4-(trifluoromethyl)phenyl]-3-pyrrolidinecarboxamide [Compound 3]
Plant response rating, Barnyardgrass ([1]; 31 g ai/ha): 40
Plant response rating, Barnyardgrass ([1]; 125 g ai/ha): 70
Plant response rating, Kochia (kochia (Kochia scoparia) [2]; 31 g ai/ha): 0
Plant response rating, Kochia (kochia (Kochia scoparia) [2]; 125 g ai/ha): 60
Plant response rating, Ragweed ([3]; 31 g ai/ha): 0
Plant response rating, Ragweed ([3]; 125 g ai/ha): 40
Plant response rating, Ryegrass, Italian ([4]; 31 g ai/ha): 40
Plant response rating, Ryegrass, Italian ([4]; 125 g ai/ha): 50
Plant response rating, Foxtail, Green ([5]; 31 g ai/ha): 0
Plant response rating, Foxtail, Green ([5]; 125 g ai/ha): 60
Plant response rating, Pigweed ([6]; 31 g ai/ha): 40
Plant response rating, Pigweed ([6]; 125 g ai/ha): 60
Plant response rating, Wheat ([7]; 31 g ai/ha): 0
Plant response rating, Wheat ([7]; 125 g ai/ha): 40
Plant response rating, Corn (corn (Zea mays); 31 g ai/ha): 10
Plant response rating, Corn (corn (Zea mays); 125 g ai/ha): 80
Plant response rating, Blackgrass ([8]; 31 g ai/ha): 20
Plant response rating, Blackgrass ([8]; 125 g ai/ha): 30
Plant response rating, Galium ([9]; 31 g ai/ha): 40
Plant response rating, Galium ([9]; 125 g ai/ha): 50
Plant response rating, Barnyardgrass ([10]; 31 g ai/ha): 80
Plant response rating, Barnyardgrass ([10]; 125 g ai/ha): 90
Plant response rating, Kochia (kochia (Kochia scoparia) [11]; 31 g ai/ha): 0
Plant response rating, Kochia (kochia (Kochia scoparia) [11]; 125 g ai/ha): 50
Plant response rating, Ragweed ([12]; 31 g ai/ha): 0
Plant response rating, Ragweed ([12]; 125 g ai/ha): 20
Plant response rating, Ryegrass, Italian ([13]; 31 g ai/ha): 20
Plant response rating, Ryegrass, Italian ([13]; 125 g ai/ha): 40
Plant response rating, Foxtail, Green ([14]; 31 g ai/ha): 90
Plant response rating, Foxtail, Green ([14]; 125 g ai/ha): 90
Plant response rating, Pigweed ([15]; 31 g ai/ha): 20
Plant response rating, Pigweed ([15]; 125 g ai/ha): 100
Plant response rating, Barnyardgrass [16]: 45
Plant response rating, Ducksalad [17]: 80
Plant response rating, Rice (rice (Oryza sativa)): 10
Plant response rating, Sedge, Umbrella [18]: 0

CC(C)NC(=O)C1(C(=O)Nc2cccc(F)c2F)C(=O)N(C)CC1c1ccc(C(F)(F)F)cc1 (stereo not drawn) [Compound 8]
Plant response rating, Barnyardgrass ([1]; 31 g ai/ha): 0
Plant response rating, Barnyardgrass ([1]; 125 g ai/ha): 0
Plant response rating, Kochia (kochia (Kochia scoparia) [2]; 31 g ai/ha): 0
Plant response rating, Kochia (kochia (Kochia scoparia) [2]; 125 g ai/ha): 0
Plant response rating, Ragweed ([3]; 31 g ai/ha): 0
Plant response rating, Ragweed ([3]; 125 g ai/ha): 0
Plant response rating, Ryegrass, Italian ([4]; 31 g ai/ha): 0
Plant response rating, Ryegrass, Italian ([4]; 125 g ai/ha): 0
Plant response rating, Foxtail, Green ([5]; 31 g ai/ha): 0
Plant response rating, Foxtail, Green ([5]; 125 g ai/ha): 0
Plant response rating, Pigweed ([6]; 31 g ai/ha): 0
Plant response rating, Pigweed ([6]; 125 g ai/ha): 0
Plant response rating, Wheat ([7]; 31 g ai/ha): 0
Plant response rating, Wheat ([7]; 125 g ai/ha): 0
Plant response rating, Corn (corn (Zea mays); 31 g ai/ha): 0
Plant response rating, Corn (corn (Zea mays); 125 g ai/ha): 0
Plant response rating, Blackgrass ([8]; 31 g ai/ha): 0
Plant response rating, Blackgrass ([8]; 125 g ai/ha): 0
Plant response rating, Galium ([9]; 31 g ai/ha): 0
Plant response rating, Galium ([9]; 125 g ai/ha): 0
Plant response rating, Barnyardgrass ([10]; 31 g ai/ha): 0
Plant response rating, Barnyardgrass ([10]; 125 g ai/ha): 0
Plant response rating, Kochia (kochia (Kochia scoparia) [11]; 31 g ai/ha): 0
Plant response rating, Kochia (kochia (Kochia scoparia) [11]; 125 g ai/ha): 0
Plant response rating, Ragweed ([12]; 31 g ai/ha): 0
Plant response rating, Ragweed ([12]; 125 g ai/ha): 0
Plant response rating, Ryegrass, Italian ([13]; 31 g ai/ha): 0
Plant response rating, Ryegrass, Italian ([13]; 125 g ai/ha): 0
Plant response rating, Foxtail, Green ([14]; 31 g ai/ha): 0
Plant response rating, Foxtail, Green ([14]; 125 g ai/ha): 0
Plant response rating, Pigweed ([15]; 31 g ai/ha): 0
Plant response rating, Pigweed ([15]; 125 g ai/ha): 0
Plant response rating, Barnyardgrass [16]: 0
Plant response rating, Ducksalad [17]: 0
Plant response rating, Rice (rice (Oryza sativa)): 0
Plant response rating, Sedge, Umbrella [18]: 0
